Data published in US8119692B2 (priority 2007, dated 2012).

biological target: Lethal factor protease (Bacillus anthracis, UniProt P15917); experiment: biochemical; conditions: LF (FRET) Ki^app
Sequence (P15917 34-809 limits assumed): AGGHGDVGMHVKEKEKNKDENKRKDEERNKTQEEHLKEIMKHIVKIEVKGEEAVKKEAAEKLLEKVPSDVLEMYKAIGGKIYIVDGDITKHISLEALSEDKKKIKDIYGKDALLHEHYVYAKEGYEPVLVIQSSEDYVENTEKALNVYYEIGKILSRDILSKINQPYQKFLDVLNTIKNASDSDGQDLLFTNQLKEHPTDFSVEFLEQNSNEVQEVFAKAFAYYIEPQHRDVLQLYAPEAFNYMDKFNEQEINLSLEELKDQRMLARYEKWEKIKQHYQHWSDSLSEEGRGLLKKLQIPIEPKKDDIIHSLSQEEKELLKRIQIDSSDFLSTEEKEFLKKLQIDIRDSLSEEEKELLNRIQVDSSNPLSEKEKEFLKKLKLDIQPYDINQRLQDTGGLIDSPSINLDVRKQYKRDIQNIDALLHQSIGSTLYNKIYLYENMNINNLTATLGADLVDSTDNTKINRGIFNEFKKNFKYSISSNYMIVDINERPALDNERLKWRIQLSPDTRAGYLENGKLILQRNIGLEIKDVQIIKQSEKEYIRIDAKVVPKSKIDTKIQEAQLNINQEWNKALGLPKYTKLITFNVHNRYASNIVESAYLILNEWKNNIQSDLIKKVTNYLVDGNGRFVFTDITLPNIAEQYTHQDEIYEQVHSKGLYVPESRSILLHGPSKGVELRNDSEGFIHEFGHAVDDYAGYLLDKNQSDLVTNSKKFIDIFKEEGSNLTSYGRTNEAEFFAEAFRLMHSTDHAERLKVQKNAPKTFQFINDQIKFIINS

SMILES | Ki [nM]
CO[C@H](C[C@H](CCN1CCCC(C(=O)O)C1)C(=O)NO)c1ccc(F)cc1 (stereo partly drawn) [Compound 167924, 1-((3S,5R)-5-(4-fluorophenyl)-3-(hydroxycarbamoyl)-5-methoxypentyl)piperidine-3-carboxylic acid] | 9000
C=CC[C@@H](C[C@@H](OC)c1ccc(F)c(C)c1)C(=O)NO [Compound 167673, (S)-2-((R)-2-(4-Fluoro-3-methylphenyl)-2-methoxyethyl)-N-hydroxypent-4-enamide] | 6600
CO[C@H](C[C@H](CCN(C)c1ccc(Br)cc1)C(=O)NO)c1ccc(F)cc1 [Compound 168013, (2S,4R)-2-(2-((4-bromophenyl)(methyl)amino)ethyl)-4-(4-fluorophenyl)-N-hydroxy-4-methoxybutanamide] | 1800
CO[C@H](C[C@H](CCN(C)CCN(C)c1ccccc1)C(=O)NO)c1ccc(F)cc1 [Compound 168058, (2S,4R)-4-(4-fluorophenyl)-N-hydroxy-4-methoxy-2-(2-(methyl(2-(methyl(phenyl)amino)ethyl)amino)ethyl)butanamide] | 780
CO[C@H](C[C@H](CCCCNCc1cc2ccccc2s1)C(=O)NO)c1ccc(F)cc1 [Compound 168231, (S)-6-(benzo[b]thiophen-2-ylmethylamino)-2-((R)-2-(4-fluorophenyl)-2-methoxyethyl)-N-hydroxyhexanamide] | 320
CO[C@H](C[C@@H](CCCc1ccccc1)C(=O)NO)c1ccc(F)cc1 [Compound 167395, (2R)-2-((2R)-2-(4-fluorophenyl)-2-methoxyethyl)-N-hydroxy-5-phenylpentanamide] | 78600
CO[C@H](C[C@H](CCN1CCNCC1)C(=O)NO)c1ccc(F)cc1 [Compound 167955, (2S,4R)-4-(4-fluorophenyl)-N-hydroxy-4-methoxy-2-(2-(piperazin-1-yl)ethyl)butanamide] | 830
CO[C@H](C[C@H](CCN1CCc2ccccc2C1)C(=O)NO)c1ccc(F)cc1 [Compound 167891, (2S,4R)-2-(2-(3,4-dihydroisoquinolin-2(1H)-yl)ethyl)-4-(4-fluorophenyl)-N-hydroxy-4-methoxybutanamide] | 920
CO[C@H](C[C@H](CCN(C)C)C(=O)NO)c1ccc(F)cc1 [Compound 167954, (2S,4R)-2-(2-(dimethylamino)ethyl)-4-(4-fluorophenyl)-N-hydroxy-4-methoxybutanamide] | 970
CO[C@H](C[C@H](CCN1CCN(CCCc2ccccc2)CC1)C(=O)NO)c1ccc(F)cc1 [Compound 167959, (2S,4R)-4-(4-fluorophenyl)-N-hydroxy-4-methoxy-2-(2-(4-(3-phenylpropyl)piperazin-1-yl)ethyl)butanamide] | 1000
CO[C@H](C[C@H](CCN1CCN(CC2CCCCC2)CC1)C(=O)NO)c1ccc(F)cc1 [Compound 167961, (2S,4R)-2-(2-(4-(cyclohexylmethyl)piperazin-1-yl)ethyl)-4-(4-fluorophenyl)-N-hydroxy-4-methoxybutanamide] | 1800
C=CC[C@H](C[C@@H](OC)c1ccc(F)c(C)c1)C(=O)NO [Compound 167672, (2R)-2-((2R)-2-(4-fluoro-3-methylphenyl)-2-methoxyethyl)-N-hydroxypent-4-enamide] | 42000
COc1ccc(C(CCC(=O)NO)OC)cc1 (stereo not drawn) [Compound 167457, N-hydroxy-4-methoxy-4-(4-methoxyphenyl)butanamide] | 193000
CO[C@H](C[C@H](CCN1CCC[C@@H](CN2CCCCC2)C1)C(=O)NO)c1ccc(F)cc1 [Compound 168045, (2S,4R)-4-(4-fluorophenyl)-N-hydroxy-4-methoxy-2-(2-((S)-3-(piperidin-1-ylmethyl)piperidin-1-yl)ethyl)butanamide] | 430
CO[C@H](C[C@H](CCCCNCc1cccs1)C(=O)NO)c1ccc(F)cc1 [Compound 168223] | 210
CO[C@H](C[C@H](CCN1CCCCCCC1)C(=O)NO)c1ccc(F)cc1 [Compound 167912, (2S,4R)-2-(2-(azocan-1-yl)ethyl)-4-(4-fluorophenyl)-N-hydroxy-4-methoxybutanamide] | 284000
CO[C@H](CCC(=O)NO)c1ccc(F)c(C)c1 [Compound 167223, (R)-4-(4-fluoro-3-methylphenyl)-N-hydroxy-4-methoxybutanamide] | 11900
CO[C@H](C[C@H](CCCCNCCc1ccc(F)cc1)C(=O)NO)c1ccc(F)cc1 [Compound 168221] | 280
COC(CCC(=O)NO)c1ccccc1F (stereo not drawn) [Compound 167564, 4-(2-fluorophenyl)-N-hydroxy-4-methoxybutanamide] | 52400
CO[C@H](C[C@H](CCN(C)Cc1ccccc1)C(=O)NO)c1ccc(F)cc1 [Compound 167785, (2S,4R)-2-(2-(benzyl(methyl)amino)ethyl)-4-(4-fluorophenyl)-N-hydroxy-4-methoxybutanamide] | 2000
COC(CC(Cc1ccccc1)C(=O)NO)c1ccc(F)cc1 (stereo not drawn) [Compound 167285] | > 300000
COC(CC(CCc1ccccc1)C(=O)NO)c1ccc(F)cc1 (stereo not drawn) [Compound 167308, 4-(4-fluorophenyl)-N-hydroxy-4-methoxy-2-phenethylbutanamide] | 2400
CO[C@H](C[C@H](Cc1ccccc1)C(=O)NO)c1ccc(F)cc1 [Compound 167298] | 89500

SMILES | Ki [nM]
O=C(CCC(O)c1ccc(F)cc1)NO (racemic) [Compound 166976, 4-(4-fluorophenyl)-N,4-dihydroxybutanamide] | 138000
CO[C@H](C[C@H](CCCCNCc1cccc(-c2ccc(F)cc2)c1)C(=O)NO)c1ccc(F)cc1 [Compound 168230, (S)-6-((4′-fluorobiphenyl-3-yl)methylamino)-2-((R)-2-(4-fluorophenyl)-2-methoxyethyl)-N-hydroxyhexanamide] | 450
COC(CCC(=O)NO)c1cccc(F)c1 (stereo not drawn) [Compound 167456, 4-(3-fluorophenyl)-N-hydroxy-4-methoxybutanamide] | 51600
CO[C@H](C[C@H](CCCCN(C)Cc1ccc(F)cc1)C(=O)NO)c1ccc(F)cc1 [Compound 168138] | 390
COC(CCC(=O)NO)c1ccc(Cl)cc1 (stereo not drawn) [Compound 167460, 4-(4-chlorophenyl)-N-hydroxy-4-methoxybutanamide] | 52300
O=C(CCC(OCc1ccccc1)c1ccc(F)cc1)NO (racemic) [Compound 167151, 4-(benzyloxy)-4-(4-fluorophenyl)-N-hydroxybutanamide] | 130000
CO[C@H](C[C@H](CCN(C)Cc1ccc(F)cc1)C(=O)NO)c1ccc(F)cc1 [Compound 167795, (2S,4R)-2-(2-((4-fluorobenzyl)(methyl)amino)ethyl)-4-(4-fluorophenyl)-N-hydroxy-4-methoxybutanamide] | 2100
CO[C@H](C[C@H](CCN(C)C/C=C/c1ccccc1)C(=O)NO)c1ccc(F)cc1 [Compound 168017, (2S,4R)-2-(2-(cinnamyl(methyl)amino)ethyl)-4-(4-fluorophenyl)-N-hydroxy-4-methoxybutanamide] | 520
CO[C@H](C[C@H](CCN(C)Cc1ccc(Br)cc1)C(=O)NO)c1ccc(F)cc1 [Compound 168015] | 2200
CO[C@H](C[C@H](CCN(C)CCO)C(=O)NO)c1ccc(F)cc1 [Compound 167922] | 1490
CCC[C@@H](C[C@@H](OC)c1ccc(F)c(C)c1)C(=O)NO [Compound 167675, (2S)-2-((2R)-2-(4-fluoro-3-methylphenyl)-2-methoxyethyl)-N-hydroxypentanamide] | 2600
CO[C@H](C[C@H](CCN(C)c1cccc(-c2ccc(F)c(C)c2)c1)C(=O)NO)c1ccc(F)cc1 [Compound 168007, (2S,4R)-2-(2-((4′-fluoro-3′-methylbiphenyl-3-yl)(methyl)amino)ethyl)-4-(4-fluorophenyl)-N-hydroxy-4-methoxybutanamide] | 19500
COC(CCC(=O)NO)c1cccc(Cl)c1 (stereo not drawn) [Compound 167461, 4-(3-chlorophenyl)-N-hydroxy-4-methoxybutanamide] | 87400
CO[C@H](C[C@H](CCN(Cc1ccccc1)Cc1ccccc1)C(=O)NO)c1ccc(F)cc1 [Compound 167996, (2S,4R)-2-(2-(dibenzylamino)ethyl)-4-(4-fluorophenyl)-N-hydroxy-4-methoxybutanamide] | 33400
COC(CC(C)C(=O)NO)c1ccc(F)cc1 (stereo not drawn) [Compound 167288, 4-(4-Fluoro-phenyl)-N-hydroxy-4-methoxy-2-methyl-butyramide] | 3100
O=C(CC[C@@H](O)c1ccc(F)cc1)NO [Compound 167206, (R)-4-(4-fluorophenyl)-N,4-dihydroxybutanamide] | 66100
CO[C@H](C[C@H](CCN(c1ccccc1)c1ccccc1)C(=O)NO)c1ccc(F)cc1 [Compound 167796, (2S)-(2-Diphenylamino-ethyl)-(4R)-(4-fluoro-phenyl)-N-hydroxy-4-methoxy-butyramide] | 2100
CO[C@H](C[C@H](CCN1CCN(C(=O)OC(C)(C)C)CC1)C(=O)NO)c1ccc(F)cc1 [Compound 167944, tert-butyl 4-((3S,5R)-5-(4-fluorophenyl)-3-(hydroxycarbamoyl)-5-methoxypentyl)piperazine-1-carboxylate] | 2500
CO[C@H](C[C@H](CCCc1ccccc1)C(=O)NO)c1ccc(F)cc1 [Compound 167337, (2S)-2-((2R)-2-(4-fluorophenyl)-2-methoxyethyl)-N-hydroxy-5-phenylpentanamide] | 7800
CO[C@H](CCC(=O)NO)c1ccc(F)cc1 [Compound 167204, (R)-4-(4-fluorophenyl)-N-hydroxy-4-methoxybutanamide] | 7900
CO[C@H](C[C@H](CCN(C)c1cccc(Br)c1)C(=O)NO)c1ccc(F)cc1 [Compound 168000, (2S,4R)-2-(2-((3-bromophenyl)(methyl)amino)ethyl)-4-(4-fluorophenyl)-N-hydroxy-4-methoxybutanamide] | 2800
CO[C@H](C[C@H](CCN(C)c1ccccc1)C(=O)NO)c1ccc(F)cc1 [Compound 168028, (2S,4R)-4-(4-fluorophenyl)-N-hydroxy-4-methoxy-2-(2-(methyl(phenyl)amino)ethyl)butanamide] | 1820
